Test results: patent US10570184B2, “GLP-1/glucagon receptor co-agonists for medical use” (Novo Nordisk A/S, priority 2014, dated 2020)
Starred links: 1 amine or outer side, 2 acyl side, 3 side chain; linkers in the order of their positions; H or OH if unused. Non-standard residues stand in square brackets, D forms with d. Residues, ends and D or L forms follow the SMILES beside them. Groups on a side chain read outwards from the residue. *: point of attachment. C18 diacid = O=C(O)CCCCCCCCCCCCCCCCC(=O)*; γGlu = O=C(O)[C@H](CCC(=O)[*:2])N[*:1]; Ac4c = NC1(C(=O)O)CCC1; AEEA = NCCOCCOCC(=O)O; Aib = CC(C)(N)C(=O)O

Target: T1, human GLP-1 receptor (Homo sapiens, UniProt P43220)
T1 construct: expressed in transfected cells; host or cells: membranes of BHK cells (parent BHKTS13), clone FCW467-12A
Experiment: Assay (II)(a) GLP-1 receptor binding, 125I-GLP-1 displacement SPA on BHK membranes
Settings: without presence of serum albumin; read-out: GLP-1R IC50 (nM) [Assay (II)(a)]
How it was run: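 Membranes from BHK cells (clone FCW467-12A) stably expressing human GLP-1R were incubated with serially diluted compounds (8×10EE-13 to 8×10EE-7 M before addition) and [125I]-GLP-1-(7-36)NH2 with WGA SPA beads, 2 h at 30° C, pH 7.4. IC50 taken from displacement by non-linear regression. Run at ≤0.001% or 2.0% final serum albumin.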

T1 sequence (P43220 24-463): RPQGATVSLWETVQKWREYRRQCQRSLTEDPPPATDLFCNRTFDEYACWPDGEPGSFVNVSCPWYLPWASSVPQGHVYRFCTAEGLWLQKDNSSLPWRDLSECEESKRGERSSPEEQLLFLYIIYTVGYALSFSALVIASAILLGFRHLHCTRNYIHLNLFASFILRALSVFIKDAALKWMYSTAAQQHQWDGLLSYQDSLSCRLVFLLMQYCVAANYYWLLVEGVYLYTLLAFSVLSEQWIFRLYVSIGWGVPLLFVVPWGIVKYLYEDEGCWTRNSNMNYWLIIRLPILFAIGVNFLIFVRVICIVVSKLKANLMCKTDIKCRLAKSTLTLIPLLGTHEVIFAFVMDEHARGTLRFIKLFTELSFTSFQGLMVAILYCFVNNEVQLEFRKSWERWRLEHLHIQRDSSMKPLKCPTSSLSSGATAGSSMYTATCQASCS

Row | SMILES | IC50 [nM]
1 | CC[C@H](C)[C@H](NC(=O)[C@H](CC(C)C)NC(=O)[C@H](Cc1c[nH]c2ccccc12)NC(=O)[C@H](CCC(N)=O)NC(=O)[C@@H](NC(=O)[C@H](Cc1ccccc1)NC(=O)[C@H](CC(=O)O)NC(=O)[C@H](CCCNC(=N)N)NC(=O)[C@H](C)NC(=O)[C@H](CCCNC(=N)N)NC(=O)[C@H](CCCNC(=N)N)NC(=O)[C@H](C)NC(=O)[C@H](CC(=O)O)NC(=O)[C@H](CC(C)C)NC(=O)[C@H](Cc1ccc(O)cc1)NC(=O)[C@H](CCCCN)NC(=O)[C@H](CO)NC(=O)[C@H](CC(C)C)NC(=O)[C@H](CC(=O)O)NC(=O)[C@H](CO)NC(=O)[C@@H](NC(=O)[C@H](Cc1ccccc1)NC(=O)[C@@H](NC(=O)CNC(=O)[C@H](CCC(N)=O)NC(=O)C(C)(C)NC(=O)[C@@H](N)Cc1c[nH]cn1)[C@@H](C)O)[C@@H](C)O)C(C)C)C(=O)N[C@@H](CO)C(=O)N[C@@H](CCCCNC(=O)CC[C@H](NC(=O)CC[C@H](NC(=O)COCCOCCNC(=O)COCCOCCNC(=O)CC[C@H](NC(=O)CCCCCCCCCCCCCCCCC(=O)O)C(=O)O)C(=O)O)C(=O)O)C(N)=O [Chem. 27, N^ε29-[(4S)-4-carboxy-4-[[(4S)-4-carboxy-4-[[2-[2-[2-[[2-[2-[2-[[(4S)-4-carboxy-4-(17-carboxyheptadecanoylamino)butanoyl]amino]ethoxy]ethoxy]acetyl]amino]ethoxy]ethoxy]acetyl]amino]butanoyl]amino]butanoyl]-[Aib2,Leu10,Ala16,Arg20,Ile27,Ser28,Lys29]-Glucagon amide] (H-H[Aib]QGTFTSDLSKYLDARRARDFVQWLISK([γGlu-γGlu-AEEA-AEEA-γGlu-C18 diacid])-NH2; N-terminus assumed) | 0.2
2 | CC[C@H](C)[C@H](NC(=O)[C@H](CC(C)C)NC(=O)[C@H](Cc1c[nH]c2ccccc12)NC(=O)[C@H](CCC(N)=O)NC(=O)[C@@H](NC(=O)[C@H](Cc1ccccc1)NC(=O)[C@H](CCC(=O)O)NC(=O)[C@H](CCCNC(=N)N)NC(=O)[C@H](C)NC(=O)[C@H](CCCNC(=N)N)NC(=O)[C@H](CCCNC(=N)N)NC(=O)[C@H](CO)NC(=O)[C@H](CCC(=O)O)NC(=O)[C@H](CC(C)C)NC(=O)[C@H](Cc1ccc(O)cc1)NC(=O)[C@H](CCCCN)NC(=O)[C@H](CO)NC(=O)[C@H](CC(C)C)NC(=O)[C@H](CC(=O)O)NC(=O)[C@H](CO)NC(=O)[C@@H](NC(=O)[C@H](Cc1ccccc1)NC(=O)[C@@H](NC(=O)CNC(=O)[C@H](CCC(N)=O)NC(=O)C1(NC(=O)[C@@H](N)Cc2c[nH]cn2)CCC1)[C@@H](C)O)[C@@H](C)O)C(C)C)C(=O)N[C@@H](CCCCNC(=O)COCCOCCNC(=O)COCCOCCNC(=O)CC[C@H](NC(=O)CC[C@H](NC(=O)CCCCCCCCCCCCCCCCC(=O)O)C(=O)O)C(=O)O)C(=O)N[C@H](C(N)=O)[C@@H](C)O [Chem. 18, N^ε28-[2-[2-[2-[[2-[2-[2-[[(4S)-4-carboxy-4-[[(4S)-4-carboxy-4-(17-carboxyheptadecanoylamino)butanoyl]amino]butanoyl]amino]ethoxy]ethoxy]acetyl]amino]ethoxy]ethoxy]acetyl]-[Acb2,Leu10,Glu15,Arg20,Glu21,Ile27,Lys28]-Glucagon amide] (H-H[Ac4c]QGTFTSDLSKYLESRRAREFVQWLIK([AEEA-AEEA-γGlu-γGlu-C18 diacid])T-NH2) | 0.1
